Consider 2 compounds from US5034553A, “Platinum-(II)-diamine complex, method for the preparation of this compound, preparation with an anti-tumour action which contains this compound and also shaped preparations with an anti-tumour action” (Nederlandse Organisatie Voor …, priority 1988, dated 1991).

The subject of one data set is A2780/DDP. Particulars: for IC50 ratio: IC50 A2780/DDP versus IC50 A2780.
For data set [1] the following is noted: B. Rosenberg et al., Nature 222 (1969); cited from earlier work.
Data set [2] concerns M5076 reticulum cell sarcoma. Briefly: Action against M5076 sarcoma, subcutaneous implantation, i.v. treatment. It is filed as in vivo, BDF1 mice. The conditions noted are these: for T-C: time to 1 gram tumour. As for the experimental part: (§1) The complex was also assessed for anti-tumour action against M5076 sarcoma. BDF1 mice, 8 per group, were inoculated intraperitoneally with 10^6 cells of M5076 or subcutaneously with a fragment of a M5076 tumour.
(§2) Mice with an intraperitoneal tumour were treated intraperitoneally starting 13 days after the implantation and this was continued on days 17, 21 and 25, resulting in 4 treatments in all. Mice with an implanted subcutaneous tumour were treated intravenously starting 5 days after the implantation and again on days 9, 13 and 17. Therefore a total of four treatments. Four doses of the complex were tested. A comparison group treated with physiological saline solution and groups treated with cs-platinum are included in this experiment. The mice were assessed daily for survival and the tests were ended after 75 to 80 days. The anti-tumour action was determined on the basis of a) mean survival time of the mice treated with the active substance relative to that of the untreated mice (% T/C) and b) the mean time for subcutaneously implanted tumours to reach a weight of 1 gram in mice treated with active substance relative to the untreated mice (T-C). A compound is regarded as active if this gives a T/C≥125% or is T-C≥13 days.

The subject of data set [3] is M5076 reticulum cell sarcoma. Kind of data set: Action against M5076 sarcoma, intraperitoneal implantation, i.p. treatment. It is filed as in vivo, BDF1 mice. As for the experimental part: as §1, §2
In the next data set the test system is A2780/124. The conditions noted are these: for IC50 ratio: IC50 A2780/124 versus IC50 A2780.
The next data set has as its system L1210 murine leukaemia. Kind of data set: Activity against L1210 murine leukaemia. It is filed as in vivo, CDF1 mice. The conditions noted are these: for % T/C: once on day 1. As for the experimental part:
The platinum complex is investigated for anti-tumour action against L1210 murine leukaemia. CDF1 mice with a weight of 20 g were inoculated intraperitoneally with 10^6 ascitic cells of L1210 leukaemia. The administration of the active substance was started the day following the intraperitoneal implantation of the tumour. The complex is administered in diverse amounts by intraperitoneal injections. Groups of 6 mice are used for each dose and they are treated with a single dose of the complex on the treatment day. A group of ten control mice treated with a physiological saline solution was included in the experiment. The groups treated with cis-platinum are included as positive comparisons. The mice were weighed before the treatment and again on the fifth or sixth day and the average change in weight is taken as a measure of the toxicity. The animals are assessed daily for mortality and the experiments are ended after 30 days. The tumour activity is determined on the basis of % T/C, which is the ratio of mean survival time of the group treated with the active substance relative to the mean survival time of the comparison group treated with a physiological saline solution times 100. The mice treated with physiological saline solution usually have a mean survival time of 7 days. A compound is regarded as active when this gives a % T/C≥125%.

The next data set relates to B16-F10 murine melanoma. Kind of data set: In vitro cytotoxicity, B16-F10. It is filed as cell-based. Particulars: B16-F10, 72 hours.
Data set [4] has as its system A2780 human ovary carcinoma. Briefly: In vitro cytotoxicity, A2780. It is filed as cell-based. The conditions noted are these: A2780, 72 hours.
Procedure: (§3) The cytotoxic action of the platinum complex was evaluated in vitro in a cell line panel consisting of B16-F10 murine melanoma, HCT-116 human colon carcinoma, A2780 human ovary carcinoma and 2 sub-lines of A2780 which are resistant to cis-platinum, i.e. A2780/124 and A2780/PPD respectively. The B16-F10 cell line was kept in a culture of Eagle's Minimum Essential Medium (MEM) with Earle's salts (Gibco) enriched with 2 mmol L-glutamine, 2.06 mmol sodium pyruvate, insulin (0.26 units/ml), penicillin/streptomycin (10 units/ml and 10 mcg/ml respectively), MEM non-essential amino acids (0.6% by weight Gibco) and 10% foetal bovine serum (Hyclone). The HCT-116 cells were cultured in McCoy's 5A medium (modified Gibco) which was supplemented with 2 mmol L-glutamine, 0.12 mmol L-serine, 0.17 mmol asparagine, 1.5 mmol sodium pyruvate, MEM essential amino acids (0.625%, Gibco), MEM non-essential amino acids (0.67%, Gibco), MEM vitamins (0.6%, Gibco), foetal calf serum (10%, Hyclone) and penicillin/streptomycin (10 units/ml and 10 mcg/ml). […]
(§4) Logarithmically growing cells are harvested by mild trypsinisation and 4,000 cells are added to a microtitre plate with 96 wells (Costar). […] The spot is rendered soluble with 0.2 ml 0.1M acetic acid/ethanol (1:1) and the optical densities are determined with the aid of a Dynatech MR 600 microtitre plate reader. […]
In data set [5] the test system is B16-F10, HCT-116, A2780, A2780/124 and A2780/DDP. It is filed as cell-based, murine and human.
Procedure: as §3, §4
Data set [6] concerns HCT-116 human colon carcinoma. Kind of data set: In vitro cytotoxicity, HCT-116. The format is cell-based. The conditions noted are these: HCT116, 72 hours.
Procedure: as §3, §4
[7] abbreviates: 2.4 mg/kg i.v. on days 5, 9, 13 and 17.
The mark [8] stands for this setting: 4.8 mg/kg i.v. on days 5, 9, 13 and 17.
The mark [9] stands for this setting: 4 mg/kg i.v. on days 5, 9, 13 and 17.
The mark [10] stands for this setting: 6 mg/kg i.v. on days 5, 9, 13 and 17.
[11] abbreviates: 8 mg/kg i.v. on days 5, 9, 13 and 17.
The mark [12] stands for this setting: 12 mg/kg i.v. on days 5, 9, 13 and 17.

Procedure for B16-F10 murine melanoma: as §3, §4

For `N.N.[Cl][Pt][Cl]` [Cis-platinum, cis-diamine-dichloroplatinum, reference compound], the IC50 ratio is recorded as 12.6 with A2780/DDP and 10 with A2780/124. Further, the “anti-tumour activity” value in data set [1] is “very strong anti-tumour activity”. For the same compound, the “% T/C” value in data set [2] (setting [7]) came to 144%; in data set [2] (setting [8]) it was 141%; in data set [3] (2.4 mg/kg i.p. on days 13, 17, 21 and 25) it was 164%; in data set [3] (4.8 mg/kg i.p. on days 13, 17, 21 and 25) it was 166%. Also, the figures for the T-C in data set [2] (setting [7]) and in data set [2] (setting [8]) were 23.3 days and 31.8 days, respectively. Besides, in the data set with L1210 murine leukaemia (6-10 mg/kg), the “maximum % T/C” value worked out at 138%.
The term IC50 denotes the concentration needed to halve the response being measured. Read a high IC50 as weaker potency in that assay. `CC(C)C(CN)(CN)C(C)C.O=C([O-])C(=O)[O-].[Pt+2]` [TNO-56, 2,2-Diisopropyl-1,3-diaminopropaneoxalatoplatinum (II)]: the IC50 in the data set with B16-F10 murine melanoma worked out at 43 µg/mL; in data set [4], 221 µg/mL; in the data set with A2780/DDP (A2780/DDP, 72 hours), 110 µg/mL; in the data set with A2780/124 (A2780/124, 72 hours) it was 155 µg/mL; in data set [6], 115 µg/mL. Besides, the IC50 ratio in the data set with A2780/DDP was 0.5; with A2780/124, 0.7. For the same compound, the “cytotoxic action” value in data set [5] is reported as “cytotoxic for all five cell lines”. The “% T/C” value turned out to be 119% in data set [2] (setting [9]); 135% in [2] (setting [10]); 140% in data set [2] (setting [11]); 144% in data set [2] (setting [12]); 139% in data set [3] (4 mg/kg i.p. on days 13, 17, 21 and 25); 154% in [3] (6 mg/kg i.p. on days 13, 17, 21 and 25). Besides, the “% T/C” value in data set [3] (8 mg/kg i.p. on days 13, 17, 21 and 25) was found to be 161%; in data set [3] (12 mg/kg i.p. on days 13, 17, 21 and 25), 193%; in the data set with L1210 murine leukaemia (10 mg/kg i.p.), 125%; in the data set on L1210 murine leukaemia (20 mg/kg i.p.), 144%; in the data set on L1210 murine leukaemia (40 mg/kg i.p.), 88%. Besides, the T-C turned out to be 7.8 days in data set [2] (setting [9]), 14.0 days in data set [2] (setting [10]), 21.5 days in data set [2] (setting [11]) and 26.8 days in data set [2] (setting [12]). Further, the “% T/C and tumour inhibition” value in [2] (dose dependence, i.v.) is “dosage-dependent increase in % T/C and tumour inhibition”. Also, the “activity” value in [3] (all doses tested, i.p.) is “active”; in the data set on L1210 murine leukaemia (10 and 20 mg/kg i.p., active if % T/C≥125%), “active”.
